US6541062B2, “Water-soluble soybean extracts” (priority 1999, dated 2003)
≈ marks a conversion by molar mass, not a printed value.

Key:
solubility in methanol = format: physicochemical; settings: organic solvent or mixture, 25° C.
[1] = solubility in water (stepwise addition of water, visual inspection); format: physicochemical; settings: 25 °C, thermodynamic from solid
Procedure: A clear water-soluble soybean-based extract (2 liters) obtained in the same manner as described in Example 1. The extract solution was then lyophilized using a lyophilizer manufactured by Bertis Corp for 2 days at −85° C. under 10 mm Torr, resulting in 350 g of a pale yellow dry cake. […] The solubility was tested by first adding 1 g of the dried extract into 1 ml of pure water at 25° C. with agitation for 5 min. If the extract was not completely dissolved (visual inspection), another 1 ml of water was added and the resulting mixture agitated for 5 minutes at 25° C. Next, the mixture was visually inspected to determine if the extract had completely dissolved. If not, water at 25° C. was added in 1 ml increments and agitated for 5 minutes after each addition of water until the extract was completely dissolved by visual inspection. .

O=c1c(-c2ccc(O)cc2)coc2cc(O[C@@H]3O[C@H](CO)[C@@H](O)[C@H](O)[C@H]3O)cc(O)c12 [genistin]
solubility (solubility in methanol): ~5000 µg/mL (≈ 11.6 mM) | solubility at 5 min [1]: ~1000 µg/mL (≈ 2.31 mM)
